# Test results taken from patent publication US10076567B2, “MPER-liposome conjugates and uses thereof” (Duke University, priority 2013, dated 2018).
# Tests used:
# 2F5 mAb [1] = details: for 2F5 mAb binding response: background subtracted, 10 seconds after the injection was stopped, peptides anchored to liposomes
# Procedure: FIGS. 6A and 6B. […] FIG. 6A. […] FIG. 6B.
# SPR binding assays were performed on a BIAcore 3000 (BIAcore Inc, Piscattaway, N.J.) maintained at 20° C. as previously described (Alam et al, J. Immunol. 178:4424-4435 (2007)). […] Specific binding responses of mAb binding were obtained following subtraction of non-specific binding on the scrambled 2F5 peptide surface.
# Immunogen Peptides = experiment: NHP#91 Week 14 plasma binding to immunogen peptides by ELISA; type: in vivo, Rhesus macaques; details: NHP#91, Week 14, ELISA log AUC
# Excerpt: (§1) Rhesus macaques were immunized in 5 groups for NHP#87 with the different MPER peptide liposomes. Group 5 animals were immunized with a swarm of all of the MPER peptide liposomes. 4 animals per group. NHP#91 was a study to compare two adjuvants. Group 1 had MPLA alone and Group2 had R848 alone. The immunogen for both groups was the original MPER656 peptide liposome. The idea was to compare group 1 and 2 from this study to group 4 from NHP#87 where the animals received both MPLA and R848.
# (§2) NHP#91 and last group (656+MPLA+R848) is group 4 of NHP#87; Isolated plasma at Week 14 was screened for binding to each immunogen by ELISA. Plotted is the log area under the curve for binding for each individual monkey separated by group. Solid line indicates the average log AUC for each group.
# MPER-Specific Proteins = experiment: NHP#91 Week 14 plasma binding to MPER-specific proteins by ELISA; type: in vivo, Rhesus macaques; details: NHP#91, Week 14, ELISA log AUC
# Excerpt: as §1
# as §2, with “NHP#87 (for all panels pre-immune substracted);” for “NHP#87;”
# 2F5 mAb [2] = experiment: SPR binding of 2F5 mAb to MPER peptide-liposomes with TLR adjuvants
# Procedure: FIGS. 10A-10C. Interaction of 2F5 mAb with MPER peptide-liposomes conjugated to TLR adjuvants.
# FIG. 21 Binding of BNAb 2F5 and 4E10 to MPER peptide-liposomes described in FIGS. 19-20. Synthetic MPER peptide-liposomes complexed to the indicated MPER peptide and TLR adjuvants (R848, Lipid A) were anchored on a BIAcore sencor ship (L1) and each mAb (2 μg/mL) injected over the surface. Binding shown is after subtraction of non-specific signal measured on a control liposome surface.
substance,measurement,setting,value
QQEKNEQELLELDKWASLWNYKRWIILGLNKIVRMYS-biotin [consensus 2F5 epitope],2F5 mAb binding response,2F5 mAb [1],494.6 response unit
Monophosphoryl Lipid A [MPLA],"plasma binding to immunogen peptides, adjuvant comparison",Immunogen Peptides,better than R848
same,"plasma binding to MPER-specific proteins, adjuvant comparison",MPER-Specific Proteins,better than R848
QQEKNEQELLELDKWASSWNYKRWIILGLNKIVRMYS-biotin,off-rate of the mAb 2F5-peptide liposome complex,2F5 mAb [1],significantly slower off-rates
same,2F5 mAb binding response,2F5 mAb [1],616.7 response unit
NEKDLLALDSWKNLWNWFSITKWLWYIK [MPER656.2],binding of 2F5 mAb to peptide-liposome construct,2F5 mAb [2],lack of binding
